Patent US20140030260A1, “METHODS AND COMPOSITIONS TO ELIMINATE CHRONIC LYMPHOCYTIC LEUKEMIA AND OTHER HEMATOLOGIC MALIGNANT CELLS IN STROMAL MICROENVIRONMENT FOR CANCER THERAPY” (BOARD OF REGENTS, THE UNIVERSITY OF TEXAS SYSTEM, priority 2010, published 2014)
“Also recorded” adds a separate entry of the source.

Legend:
[1] = system: primary leukemia cells (CLL); experiment: Viability of primary CLL cells cultured alone or with stromal cells, flow cytometry after annexin-V/PI double-staining; details: for effect on the toxicity of selecticine in CLL cells: patient #17, co-culture with various types of marrow cells, 20 μM selecticine
Experimental: The cells were then treated with 50 μM selecticine for 2 days, and cell viability was measured by flow cytometry analysis after double-staining with annexin-V and PI.
The cells were then treated with 50 or 100 μM selecticine for 2 days. Cell viability was then measured by flow cytometry analysis after double-staining with annexin-V and PI.
The cells were then treated with 50 μM selecticine for 2 days. Cell viability was then measured by flow cytometry analysis after double-staining with annexin-V and PI.
Cell viability was then measured by flow cytometry analysis after double-staining with annexin-V and PI.
CLL cells isolated from two different patients were treated as follow: (1) Control (CLL alone); (2) Selenocystine mixed with the conditioned medium (CM) of stromal cell culture; (3) Medium from stromal cell culture incubated with selenocystine. After an additional 48-h incubation with CLL cells (without stramal), cell viability was measured by flow cytometry analysis after double-staining with annexin-V and PI.
CLL cells (without stromal) were then incubated for 72 hours with: (1) control medium; (2) 200 μM 2-mercaptoethanol (2ME) alone; (3) 50 μM selenocystine alone; (4) Selecticine-02 (50 μM selenocystine+200 μM 2-mercaptoethanol pre-mixed overnight). Cell viability was measured by flow cytometry analysis after double-staining with annexin-V and PI.
The experimental conditions were the same as FIG. 14, except the selenocystine:2ME ration was 5:2 instead of 1:4.
The cells were then treated with 50 mM selenocystine for 2 days.

[2] = system: EBV-immortalized normal lymphocytes; experiment: Viability of immortalized normal lymphocytes with or without stromal cells, annexin-V/PI flow cytometry; type: cell-based; details: not further specified
Source text: The numbers indicate % of viable cells.

[3] = system: CLL cells; experiment: ROS, cellular thiol and glutathione in CLL cells (mitosox Red, CMFDA); type: cell-based, human; details: in the presence of stromal cells (HS-5); 50 μM
Source text: Mitochondrial ROS levels were stained by mitosox Red (A) and cellular thiol was stained by CMFDA (B).

NC(C[SeH])C(=O)O (stereo not drawn) [selenocysteine, 3-selenyl-2-aminopropanoic acid]
toxicity to CLL leukemia cells of the active compound formed by stromal cells ([1]; mechanistic studies): highly toxic
toxicity to normal cells [2]: low toxicity

Nc1nc(F)nc2c1ncn2[C@@H]1O[C@H](CO)[C@@H](O)[C@@H]1O [F-ara-A, reference compound]
effect of stromal cells on the drug's cytotoxicity in CLL cells ([1]; patient #10, different types of stromal cells, 50 μM selecticine, 20 μM F-ara-A or 20 μM oxaliplatin, 2 days): protected

CCCCS(=N)(=O)CCC(N)C(=O)O (stereo not drawn) [BSO, reference compound]
effect on the toxicity of selecticine in CLL cells [1]: enhanced

CC(=O)N[C@@H](CS)C(=O)O [NAC, reference compound]
effect on the toxicity of selecticine in CLL cells [1]: protected

NC(C[Se][Se]CC(N)C(=O)O)C(=O)O (stereo not drawn) [selenocystine, 2-amino-3-(2-amino-2-carboxy-ethyl)selanylselanyl-propanoic acid]
cytotoxic effect on leukemia (CLL) cells ([1]; cultured alone / in the absence of stromal cells): only moderate cytotoxic effect
killing of primary CLL cells (cell viability) ([1]; in the presence of bone marrow stromal cells (HS-5), 50 μM, 2 days): highly potent cytotoxic effect; also recorded: considerable leukemia cell death
toxicity to CLL cells after conversion by stromal factor in stromal conditioned medium ([1]; mixed or incubated with stromal cell culture medium, 48-h incubation with CLL cells without stromal cells): highly toxic
ROS generation in CLL cells (mitochondrial ROS, mitosox Red) [3]: significant increase in ROS production
